Reference: the supplement of paper PMC11061612

Experiments:
MK-2206 = compound: NC1(c2ccc(-c3nc4ccn5c(=O)[nH]nc5c4cc3-c3ccccc3)cc2)CCC1 [MK-2206]; conditions: max 10 µM
How it was run: (§1)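 Cancer cell lines were seeded into 1536-well plates in 7.5 μl medium (DMEM/F12 or RPMI, 10% FBS), held 24 hours at 37°C and 5% CO2, and dosed for 72 hours with final DMSO typically 0.2%. Luminescence from CellTiter-Glo 2.0, scaled between blank-well and DMSO-well means, served as viability. The single-agent IC50 was obtained from dose-response fits with a non-linear mixed effects model, each fit being a two-parameter logistic curve.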

AZD2811 = compound: CCN(CCO)CCCOc1ccc2c(Nc3cc(CC(=O)Nc4cccc(F)c4)[nH]n3)ncnc2c1 [AZD2811]; conditions: max 1 µM
How it was run: as §1

AZD5991 = compound: Cc1c2c(nn1C)CSCc1cc(n(C)n1)CSc1cc(c3ccccc3c1)OCCCc1c(C(=O)O)n(C)c3c-2c(Cl)ccc13 [AZD5991]; conditions: max 1 µM
How it was run: as §1

Gefitinib = compound: COc1cc2ncnc(Nc3ccc(F)c(Cl)c3)c2cc1OCCCN1CCOCC1 [Gefitinib]; conditions: max 10 µM
How it was run: as §1

AZD5153 = compound: COc1nnc2ccc(N3CCC(c4ccc(OCCN5CCN(C)C(=O)[C@H]5C)cc4)CC3)nn12 [AZD5153]; conditions: max 1 µM
How it was run: as §1

SN-38 = compound: CCc1c2c(nc3ccc(O)cc13)-c1cc3c(c(=O)n1C2)COC(=O)[C@]3(O)CC [SN-38]; conditions: max 0.3 µM
How it was run: as §1

Lapatinib = compound: CS(=O)(=O)CCNCc1ccc(-c2ccc3ncnc(Nc4ccc(OCc5cccc(F)c5)c(Cl)c4)c3c2)o1 [Lapatinib]; conditions: max 10 µM
How it was run: as §1

Prexasertib = compound: COc1cccc(OCCCN)c1-c1cc(Nc2cnc(C#N)cn2)n[nH]1 [Prexasertib]; conditions: max 1 µM
How it was run: as §1

Doxorubicin = compound: COc1cccc2c1C(=O)c1c(O)c3c(c(O)c1C2=O)C[C@@](O)(C(=O)CO)C[C@@H]3O[C@H]1C[C@H](N)[C@H](O)[C@H](C)O1 [Doxorubicin]; conditions: max 1 µM
How it was run: as §1

AZD7648 = compound: Cc1cc2ncnn2cc1Nc1ncc2c(n1)n(C1CCOCC1)c(=O)n2C [AZD7648]; conditions: max 10 µM
How it was run: as §1

5-Fluorouracil = compound: O=c1[nH]cc(F)c(=O)[nH]1 [5-Fluorouracil]; conditions: max 20 µM
How it was run: as §1

SRA737 = compound: N#Cc1cnc(Nc2cc(NC[C@H]3CNCCO3)c(C(F)(F)F)cn2)cn1 [SRA737]; conditions: max 10 µM
How it was run: as §1

[1] = compound: O=C(Nc1ccc2[nH]nc(-c3ccncc3)c2c1)[C@@H]1CCN(CC(=O)N2CCN(c3ccc(-c4ncccn4)cc3)CC2)C1; conditions: max 5 µM
How it was run: as §1

Gemcitabine = compound: Nc1ccn([C@@H]2O[C@H](CO)[C@@H](O)C2(F)F)c(=O)n1 [Gemcitabine]; conditions: max 0.3 µM
How it was run: as §1

Venetoclax = compound: CC1(C)CCC(CN2CCN(c3ccc(C(=O)NS(=O)(=O)c4ccc(NCC5CCOCC5)c([N+](=O)[O-])c4)c(Oc4cnc5[nH]ccc5c4)c3)CC2)=C(c2ccc(Cl)cc2)C1 [Venetoclax]; conditions: max 1 µM
How it was run: as §1

Dasatinib = compound: CC1=C(C(=CC=C1)Cl)NC(=O)C2=CN=C(S2)NC3=CC(=NC(=N3)C)N4CCN(CC4)CCO [Dasatinib]; conditions: max 2 µM
How it was run: as §1

Crizotinib = compound: C[C@@H](Oc1cc(-c2cnn(C3CCNCC3)c2)cnc1N)c1c(Cl)ccc(F)c1Cl [Crizotinib]; conditions: max 10 µM
How it was run: as §1

Paclitaxel = compound: CC(=O)O[C@H]1C(=O)[C@@]2(C)[C@H]([C@H](OC(=O)c3ccccc3)[C@]3(O)C[C@H](OC(=O)[C@H](O)[C@@H](NC(=O)c4ccccc4)c4ccccc4)C(C)=C1C3(C)C)[C@]1(OC(C)=O)CO[C@@H]1C[C@@H]2O [Paclitaxel]; conditions: max 3 µM
How it was run: as §1

AZD6738 = compound: C[C@@H]1COCCN1C2=NC(=NC(=C2)C3(CC3)[S@](=N)(=O)C)C4=C5C=CNC5=NC=C4 [AZD6738]; conditions: max 10 µM
How it was run: as §1

Taselisib = compound: Cc1nc(-c2cn3c(n2)-c2ccc(-c4cnn(C(C)(C)C(N)=O)c4)cc2OCC3)n(C(C)C)n1 [Taselisib]; conditions: max 10 µM
How it was run: as §1

Etoposide = compound: COc1cc([C@@H]2c3cc4c(cc3[C@@H](O[C@@H]3O[C@@H]5CO[C@@H](C)O[C@H]5[C@H](O)[C@H]3O)[C@H]3COC(=O)[C@H]23)OCO4)cc(OC)c1O [Etoposide]; conditions: max 10 µM
How it was run: as §1

AZD4320 = compound: CN(CC[C@H](CSC1=CC=CC=C1)NC2=C(C=C(C=C2)S(=O)(=O)NC(=O)C3=CC=C(C=C3)N4CCC(CC4)[C@H](C5=CC=CC=C5C6=CC=C(C=C6)Cl)O)S(=O)(=O)C(F)(F)F)CCO [AZD4320]; conditions: max 1 µM
How it was run: as §1

AZD0156 = compound: CN(C)CCCOc1ccc(-c2ccc3ncc4c(c3c2)n(C2CCOCC2)c(=O)n4C)cn1 [AZD0156]; conditions: max 3 µM
How it was run: as §1

Savolitinib = compound: C[C@@H](c1ccc2nccn2c1)n1nnc2ncc(-c3cnn(C)c3)nc21 [Savolitinib]; conditions: max 1 µM
How it was run: as §1

Selumetinib = compound: Cn1cnc2c(F)c(Nc3ccc(Br)cc3Cl)c(C(=O)NOCCO)cc21 [Selumetinib]; conditions: max 10 µM
How it was run: as §1

AZD5363 = compound: C1CN(CCC1(C(=O)N[C@@H](CCO)C2=CC=C(C=C2)Cl)N)C3=NC=NC4=C3C=CN4 [AZD5363]; conditions: max 10 µM
How it was run: as §1

Alisertib = compound: COc1cc(Nc2ncc3c(n2)-c2ccc(Cl)cc2C(c2c(F)cccc2OC)=NC3)ccc1C(=O)O [Alisertib]; conditions: max 10 µM
How it was run: as §1

SG3199 = compound: CC1=CN2[C@@H](C1)C=NC3=CC(=C(C=C3C2=O)OC)OCCCCCOC4=C(C=C5C(=C4)N=C[C@@H]6CC(=CN6C5=O)C)OC [SG3199]; conditions: max 0.001 µM
How it was run: as §1

AZD1390 = compound: CC(C)n1c(=O)n(C)c2cnc3cc(F)c(-c4ccc(OCCCN5CCCCC5)nc4)cc3c21 [AZD1390]; conditions: max 0.3 µM
How it was run: as §1

Trametinib = compound: CC(=O)Nc1cccc(-n2c(=O)n(C3CC3)c(=O)c3c(Nc4ccc(I)cc4F)n(C)c(=O)c(C)c32)c1 [Trametinib]; conditions: max 1 µM
How it was run: as §1

Palbociclib = compound: CC(=O)c1c(C)c2cnc(Nc3ccc(N4CCNCC4)cn3)nc2n(C2CCCC2)c1=O [Palbociclib]; conditions: max 10 µM
How it was run: as §1

AZD8186 = compound: C[C@@H](Nc1cc(F)cc(F)c1)c1cc(C(=O)N(C)C)cc2c(=O)cc(N3CCOCC3)oc12 [AZD8186]
How it was run: as §1

Carboplatin = compound: C1CC(C1)(C(=O)[O-])C(=O)[O-].N.N.[Pt+2] [Carboplatin]; conditions: max 10 µM
How it was run: as §1

AZD1775 = compound: C=CCn1c(=O)c2cnc(Nc3ccc(N4CCN(C)CC4)cc3)nc2n1-c1cccc(C(C)(C)O)n1 [AZD1775]; conditions: max 3 µM
How it was run: as §1

Olaparib = compound: O=C(c1cc(Cc2n[nH]c(=O)c3ccccc23)ccc1F)N1CCN(C(=O)C2CC2)CC1 [Olaparib]; conditions: max 10 µM
How it was run: as §1

Capivasertib = compound: C1CN(CCC1(C(=O)N[C@@H](CCO)C2=CC=C(C=C2)Cl)N)C3=NC=NC4=C3C=CN4 [Capivasertib]; conditions: max 10 µM
How it was run: as §1

Row | Cell Line | IC50, cell viability 72 h (MK-2206) [nM] | IC50, cell viability 72 h (AZD2811) [nM] | IC50, cell viability 72 h (AZD5991) [nM] | IC50, cell viability 72 h (Gefitinib) [nM] | IC50, cell viability 72 h (AZD5153) [nM] | IC50, cell viability 72 h (SN-38) [nM] | IC50, cell viability 72 h (Lapatinib) [nM] | IC50, cell viability 72 h (Prexasertib) [nM] | IC50, cell viability 72 h (Doxorubicin) [nM] | IC50, cell viability 72 h (AZD7648) [nM] | IC50, cell viability 72 h (5-Fluorouracil) [nM] | IC50, cell viability 72 h (SRA737) [nM] | IC50, cell viability 72 h [1] [nM] | IC50, cell viability 72 h (Gemcitabine) [nM] | IC50, cell viability 72 h (Venetoclax) [nM] | IC50, cell viability 72 h (Dasatinib) [nM] | IC50, cell viability 72 h (Crizotinib) [nM] | IC50, cell viability 72 h (Paclitaxel) [nM] | IC50, cell viability 72 h (AZD6738) [nM] | IC50, cell viability 72 h (Taselisib) [nM] | IC50, cell viability 72 h (Etoposide) [nM] | IC50, cell viability 72 h (AZD4320) [nM] | IC50, cell viability 72 h (AZD0156) [nM] | IC50, cell viability 72 h (Savolitinib) [nM] | IC50, cell viability 72 h (Selumetinib) [nM] | IC50, cell viability 72 h (AZD5363) [nM] | IC50, cell viability 72 h (Alisertib) [nM] | IC50, cell viability 72 h (SG3199) [nM] | IC50, cell viability 72 h (AZD1390) [nM] | IC50, cell viability 72 h (Trametinib) [nM] | IC50, cell viability 72 h (Palbociclib) [nM] | IC50, cell viability 72 h (AZD8186; max 10 µM) [nM] | IC50, cell viability 72 h (Carboplatin) [nM] | IC50, cell viability 72 h (AZD1775) [nM] | IC50, cell viability 72 h (Olaparib) [nM] | IC50, cell viability 72 h (Capivasertib) [nM] | IC50, cell viability 72 h (AZD8186; max 3 µM) [nM]
1 | KU812 (Chronic Myelogenous Leukemia) | 4070 | 471 | 235 | > 10000 | 36.6 | 37.4 | > 10000 | 20.5 | 567 | > 10000 | > 20000 | 9860 | 160 | 27.1 | > 1000 | < 2 | 260 | 17.6 | 2150 | > 10000 | 9690 | 267 | > 3000 | > 1000 | 260 | > 10000 | 701 | > 1 | > 300 | 10.5 | 4050 | > 10000 | > 10000 | 298 | > 10000 |  | 
2 | KY821 (Acute Myeloid Leukemia) | > 10000 | > 1000 | 13.2 | > 10000 | 22.1 | 8.99 | > 10000 | 8.46 | 272 | > 10000 |  |  |  |  | 9.8 | > 2000 | 4630 |  | 3070 | 90.7 |  | 4.53 | > 3000 | > 1000 | 623 |  | 28.6 | > 1 | > 300 | 5.35 | 610 |  |  | 212 | > 10000 | > 10000 | 2700
